Data: patent US4389412A, “Substituted cyclopropanecarboxylic acid esters and pesticidal compositions containing the same as active ingredient” (priority 1979, dated 1983)
Where two headings read alike, the source gives them in different places.

Columns and labels:
[1] = system: green rice leafhoppers (Nephotettix cincticeps Uhler); assay: Utility Example-4: 0.2% dust on rice seedlings, green rice leafhoppers; type: in vivo; settings: 5 kg per 10 ares, 24 hours, resistant to organophosphorus and carbamate pesticides
Description: A 0.2% dust preparation of each of the cis- and trans-isomers and a 50:50 mixture of the cis- and trans-isomers of Compound (1) and of Compound (2) as prepared by the procedure described in Formulation Example-3 was applied to rice seedlings by means of a bell-jar duster at the rate of 5 kg per 10 ares. […] In all cases, the mortality was not less than 90%.

[2] = system: green rice leafhoppers (Nephotettix cincticeps Uhler); assay: Mortality test with green rice leafhoppers by topical application method; settings: Nephotettix cincticeps, in Oryza sativa, 24 h; for LD50: read-out: LD50 (median lethal dose), topical, green rice leafhoppers; for mortality at 10 ng: read-out: Pesticidal effect, green rice leafhopper
Method: Mortality test with green rice leafhoppers (Nephotettix cincticeps Uhler) by topical application method
Then, the insects were kept at 25° C. with access to rice plant seedlings. The insects were used in groups of 15 individuals each.

[3] = Fish toxicity safety factor (TLm divided by maximum concentration in cover water); parameters: species or system carp; settings: in vivo, TLm / maximum concentration in cover water at LC50 application (100 l per 10 ares, 5 cm depth)
Method in brief: (§1)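 Calculated index: carp TLm (ppm) divided by the maximum compound concentration expected in paddy cover water. That concentration assumes 100 l of solution at the pest LC50 applied per 10 ares onto 5 cm deep cover water, all of it entering the water.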

[4] = system: tobacco cutworms (Prodenia litura Fabricius); assay: Mortality test with tobacco cutworms by topical application method; type: in vivo; settings: 24 h
Method: Mortality test with tobacco cutworms (Prodenia litura Fabricius) by topical application method
Using a microsyringe, 0.5 μl of the above solution was dripped onto the thoracic adbominal region of each of 3-instar tobacco cutworm (Prodenia litura Fabricius) larvae. […] The test larvae were used in groups of 20 individuals each.

[5] = Toxicity test with water-fleas; type: in vivo, Daphnia pulex; settings: water, 25±1° C., read-out: TLm, Water-flea (6 hrs.)
carp and water flea = assay: Fish toxicity ranking according to Japanese regulations; parameters: species or system Cyprinus carpio L; Daphnia pulex; settings: from TLm for carp and water flea
Method in brief: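 Ranking per Japanese agrochemical regulations from median tolerance limits: A = carp TLm (48 hrs.) >10 ppm and water flea TLm (3 hrs.) >0.5 ppm; B = carp 10-0.5 ppm, or carp >10 ppm with water flea <0.5 ppm; C = carp TLm (48 hrs.) <0.5 ppm.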

fish = assay: Fish toxicity safety factor (TLm divided by maximum concentration in cover water); parameters: species or system carp
Method in brief: as §1

[6] = system: tobacco cutworm (Prodenia litura); assay: Utility Example-5: spray on soy bean leaves, tobacco cutworm larvae; type: in vivo; settings: 48 h, 2 days
Method: An acetone solution of one of the test compounds as mentioned in Table 13 and Tween-20 (the same surfactant as mentioned hereinbefore) was prepared. This acetone solution was diluted with water to prepare a solution containing the test compound in a predetermined concentration. Leaves of soy bean in pots were sprayed with the above diluted solution at the rate of 20 ml/pot and, after one day, ten 3-instar larvae of tobacco cutworm (Prodenia litura) were released on the leaves. The pots were kept in a constant-temperature chamber at 25° C.

[7] = Acute toxicity test in rat by the oral route; type: in vivo; settings: in vivo, male rat, in olive oil, after 7 days
Description: (§2) Acute toxicity test in rat by the oral route

[8] = Fish toxicity test with guppies; type: in vivo, Lebistes reticulatus; settings: guppy, water, guppies, 20° C., read-out: TLm (48 hrs.)
Method in brief: (§3)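 Ten female guppies, 3–4 months old, held at 20 °C in water containing surfactant and test compound added in acetone solution. TLm (median tolerance limit, ppm) determined.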

[9] = system: guppies (Lebistes reticulatus); assay: Fish toxicity test with guppies; type: in vivo; settings: Table 1; 48 hrs.
Method in brief: as §3

rat = assay: Acute toxicity test in rat by the oral route; type: in vivo; settings: Table 1, rat, 10080 min
Description: as §2

[10] = read-out: Pesticidal effect, tobacco cutworm

Row | Compound | mortality [1] | mortality at 0.01 µg/female [2] | mortality at 0.1 µg/female [2] | mortality at 1 µg/female [2] | LD50 [2] | selectivity ratio [3] | mortality at 0.0001 mg [4] | LC50 at 6 h [5] | Ranking (carp and water flea) | concentration which kills 50% of pests as fraction of concentration which kills 50% of fish (fish) | mortality at 10 ng [2] | mortality at 6.5 ppm [6] | mortality at 13 ppm [6] | mortality at 0.0001 mg [4, 10] | LD50 at 168 h [7] | LC50 at 48 h [8] | Toxicity to fish TLm, guppy [9] | Fish toxicity safety factor (fish; TLm / maximum concentration in cover water at LC50 application (100 l per 10 ares, 5 cm depth)) | Acute oral toxicity to rat LD50 (rat)
1 | CC1(C)[C@@H](C=C(Cl)Cl)[C@@H]1C(=O)OCc1cccc(Oc2ccc(Cl)cc2)c1 (relative stereo) [Compound (1) trans-, 3-(4-chlorophenoxy)benzyl trans-2,2-dimethyl-3-(2,2-dichlorovinyl)cyclopropanecarboxylate] | not less than 90% | 100% | 100% | 100% | 0.68 mg/kg | 3.5 | 100% | > 40 µg/mL | B (TLm (48 hrs.) value 10-0.5 ppm for carp; or TLm (48 hrs.) value >10 ppm for carp and TLm (3 hrs.) value <0.5 ppm for water flea, wherein appreciable toxicity to fishes is not observed by usual application but may be observed when applied to wide area at one time.) |  |  |  |  |  |  |  |  |  | 
2 | C#CC(OC(=O)[C@@H]1[C@H](C=C(Cl)Cl)C1(C)C)c1cccc(Oc2ccc(Cl)cc2)c1 (relative stereo) [Compound (2) cis-] | not less than 90% | 100% | 100% | 100% | 0.44 mg/kg | 2.1 | 100% | > 40 µg/mL | B (TLm (48 hrs.) value 10-0.5 ppm for carp; or TLm (48 hrs.) value >10 ppm for carp and TLm (3 hrs.) value <0.5 ppm for water flea, wherein appreciable toxicity to fishes is not observed by usual application but may be observed when applied to wide area at one time.) |  |  |  |  |  |  |  |  |  | 
3 | C#CC(OC(=O)[C@@H]1[C@@H](C=C(Cl)Cl)C1(C)C)c1cccc(Oc2ccc(Cl)cc2)c1 (relative stereo) [Compound (2) trans-] | not less than 90% | 100% | 100% | 100% | 0.45 mg/kg | > 28 | 100% | > 40 µg/mL | A (TLm (48 hrs.) value >10 ppm for carp and TLm (3 hrs.) value >0.5 ppm for water flea, wherein toxicity to fishes is not observed by usual application.) | less than 1/28 |  |  |  |  |  |  |  |  | 
4 | CC1(C)C(C=C(Cl)Cl)C1C(=O)OCc1cccc(Oc2ccccc2)c1 (centres unmarked) [Compound (B), Permethrin] |  | 80% | 100% | 100% | 1.25 mg/kg | 0.01 | 85% |  | C (TLm (48 hrs.) value <0.5 ppm for carp, wherein toxicity to fishes is so strongly observed by usual application that both the application method and application area are strictly restricted.) |  | 80% | 60% | 90% | 85% | 300 mg/kg | < 0.5 µg/mL | < 0.5 ppm |  | 
5 | C#CC(OC(=O)C1C(C=C(Cl)Cl)C1(C)C)c1cccc(Oc2ccc(Cl)cc2)c1 (stereo not drawn) [Compound (2) cis-/trans- = 50:50, 3-(4-chlorophenoxy)-α-ethynylbenzyl 2,2-dimethyl-3-(2,2-dichlorovinyl)cyclopropanecarboxylate] | not less than 90% | 100% | 100% | 100% | 0.44 mg/kg |  | 100% | > 40 µg/mL | B (TLm (48 hrs.) value 10-0.5 ppm for carp; or TLm (48 hrs.) value >10 ppm for carp and TLm (3 hrs.) value <0.5 ppm for water flea, wherein appreciable toxicity to fishes is not observed by usual application but may be observed when applied to wide area at one time.) |  | 100% | 100% | 100% | 100% | > 3000 mg/kg | > 10 µg/mL | > 10 ppm | 7.4 | > 3000 mg/kg
